Assay results published in publication PMC10796634, “Discovery of plant chemical defence mediated by a two-component system involving β-glucosidase in Panax species” (Nature Communications, 2024).

System: PnGH1
Experiment: HPLC quantification of product Fd, Michaelis-Menten fit
Assay type: biochemical, Panax notoginseng
Conditions: pH 5.0 (50 mM Tris-HCl), 60 °C, 30 min, 30–8000 µM Rb3

## CC(C)=CCC[C@](C)(O[C@@H]1O[C@H](CO[C@@H]2OC[C@@H](O)[C@H](O)[C@H]2O)[C@@H](O)[C@H](O)[C@H]1O)[C@H]1CC[C@]2(C)[C@@H]1[C@H](O)C[C@@H]1[C@@]3(C)CC[C@H](O[C@@H]4O[C@H](CO)[C@@H](O)[C@H](O)[C@H]4O[C@@H]4O[C@H](CO)[C@@H](O)[C@H](O)[C@H]4O)C(C)(C)[C@@H]3CC[C@]12C [compound 4, Rb3]
  Km: 677 ± 38.5 µM
